Source: PMC6197744, “Triazolo[4,5-d]pyrimidines as Validated General Control Nonderepressible 2 (GCN2) Protein Kinase Inhibitors Reduce Growth of Leukemia Cells” (Computational and Structural Biotechnology Journal, 2018)

Columns and labels:
Test in all cases: NCI-60 one-dose screen
Format in all cases: cell-based
HCT-15 = details: Homo sapiens; Colon HCT-15, 10 μM, 48 h; read-out: Percent growth inhibition
Protocol: (§1) Compounds 1 and 2 were submitted to the National Cancer Institute NCI-60 Tumor Cell Screening Program (NCI number 800,700 and 800,701, respectively) for evaluation against the 60 cell line NCI panel at a single dose of 10 μM. […] Leukemia and breast cancer cell lines comprised the only cancer groups that were uniformly sensitive to both 1 and 2, with the greatest sensitivity seen in the leukemia SR cell line.
(§2) Compounds 1 and 2 were submitted to the NCI for growth inhibition screening against its panel of 60 cancer cell lines. The NCI screening protocol has extensively been described [[53], [54], [55], [56]]. Briefly, cancerous cell lines were grown in RPMI 1640 medium containing 5% fetal bovine serum and 2 mM L-glutamine. Depending on the doubling time of each cell line, 5000–40,000 cells were seeded in 96-well plates for 24 h. Cells were then treated with compounds 1 or 2 at a concentration of 10 μM and incubated for 48 h at 37 °C in a humidified atmosphere containing 5% CO2. The cells were then fixed and stained with sulforhodamine B (SRB) to determine their viability. The data were analyzed using a program called COMPARE to determine the percent growth inhibition of each compound.

U251 = details: Homo sapiens, U-251; CNS U251, 10 μM, 48 h; read-out: Percent growth inhibition
Protocol: as §1, §2

SNB-19 = details: Homo sapiens; CNS SNB-19, 10 μM, 48 h; read-out: Percent growth inhibition
Protocol: as §1, §2

UO-31 = details: Homo sapiens; Renal UO-31, 10 μM, 48 h; read-out: Percent growth inhibition
Protocol: as §1, §2

M14 = details: Homo sapiens; Melanoma M14, 10 μM, 48 h; read-out: Percent growth inhibition
Protocol: as §1, §2

SF-539 = details: Homo sapiens; CNS SF-539, 10 μM, 48 h; read-out: Percent growth inhibition
Protocol: as §1, §2

HOP-62 = details: Homo sapiens; Non-Small Cell Lung HOP-62, 10 μM, 48 h; read-out: Percent growth inhibition
Protocol: as §1, §2

NCI-H23 = details: Homo sapiens; Non-Small Cell Lung NCI-H23, 10 μM, 48 h; read-out: Percent growth inhibition
Protocol: as §1, §2

MDA-MB-231 = details: Homo sapiens; Breast MDA-MB-231, 10 μM, 48 h; read-out: Percent growth inhibition
Protocol: as §1, §2

SN12C = details: Homo sapiens, Renal SN12C, 48 h, read-out: Percent growth inhibition
Protocol: as §1, §2

LOXIMVI = details: Homo sapiens, LOX IMVI, Melanoma LOXIMVI, 48 h, read-out: Percent growth inhibition
Protocol: as §1, §2

RXF393 = details: Homo sapiens, RXF 393; Renal RXF393, 10 μM, 48 h; read-out: Percent growth inhibition
Protocol: as §1, §2

EKVX = details: Homo sapiens, Non-Small Cell Lung EKVX, 48 h, read-out: Percent growth inhibition
Protocol: as §1, §2

OVCAR-8 = details: Homo sapiens; Ovarian OVCAR-8, 10 μM, 48 h; read-out: Percent growth inhibition
Protocol: as §1, §2

SK-MEL-5 = details: Homo sapiens; Melanoma SK-MEL-5, 10 μM, 48 h; read-out: Percent growth inhibition
Protocol: as §1, §2

A498 = details: Homo sapiens; Renal A498, 10 μM, 48 h; read-out: Percent growth inhibition
Protocol: as §1, §2

T-47D = details: Homo sapiens, T47D, Breast T-47D, 48 h, read-out: Percent growth inhibition
Protocol: as §1, §2

NCI/ADR-RES = details: Homo sapiens, Ovarian NCI/ADR-RES, 48 h, read-out: Percent growth inhibition
Protocol: as §1, §2

COLO205 = details: Homo sapiens, COLO 205; Colon COLO205, 10 μM, 48 h; read-out: Percent growth inhibition
Protocol: as §1, §2

IGROV1 = details: Homo sapiens, IGROV-1; Ovarian IGROV1, 10 μM, 48 h; read-out: Percent growth inhibition
Protocol: as §1, §2

SW-620 = details: Homo sapiens; Colon SW-620, 10 μM, 48 h; read-out: Percent growth inhibition
Protocol: as §1, §2

786-0 = details: Homo sapiens; Renal 786-0, 10 μM, 48 h; read-out: Percent growth inhibition
Protocol: as §1, §2

| Structure (SMILES) | inhibition at 10 µM (HCT-15) [%] | inhibition at 10 µM (U251) [%] | inhibition at 10 µM (SNB-19) [%] | inhibition at 10 µM (UO-31) [%] | inhibition at 10 µM (M14) [%] | inhibition at 10 µM (SF-539) [%] | inhibition at 10 µM (HOP-62) [%] | inhibition at 10 µM (NCI-H23) [%] | inhibition at 10 µM (MDA-MB-231) [%] | inhibition at 10 µM (SN12C) [%] | inhibition at 10 µM (LOXIMVI) [%] | inhibition at 10 µM (RXF393) [%] | inhibition at 10 µM (EKVX) [%] | inhibition at 10 µM (OVCAR-8) [%] | inhibition at 10 µM (SK-MEL-5) [%] | inhibition at 10 µM (A498) [%] | inhibition at 10 µM (T-47D) [%] | inhibition at 10 µM (NCI/ADR-RES) [%] | inhibition at 10 µM (COLO205) [%] | inhibition at 10 µM (IGROV1) [%] | also measured |
| --- | --- | --- | --- | --- | --- | --- | --- | --- | --- | --- | --- | --- | --- | --- | --- | --- | --- | --- | --- | --- | --- |
| CCOc1ccc(-n2nnc3cnc(Nc4cnn(CC)c4)nc32)cc1 [Compound 2, 3-(4-Ethoxyphenyl)-N-(1-ethyl-1H-pyrazol-4-yl)-3H-[1,2,3]triazolo[4,5-d]pyrimidin-5-amine] | 0.66 | 24.3 | -0.19 | 3.24 | 10.9 | 32 | 15.7 | 5.25 | 7.57 | 12.5 | 45.7 | 43.8 | -5.32 | 21.2 | 26.4 | 44.1 | 20.7 | 1.5 | 29.9 | 5.39 | inhibition at 10 µM (SW-620): -17.3%; inhibition at 10 µM (786-0): 21.7% |
| CCn1cc(Nc2ncc3nnn(-c4ccc(C(=O)OC)cc4)c3n2)cn1 [Compound 1, Methyl 4-(5-((1-ethyl-1H-pyrazol-4-yl)amino)-3H-[1,2,3]triazolo[4,5-d]pyrimidin-3-yl)benzoate] | 11.2 | 27.6 | -9.34 | 10.4 | 17 | -9.47 | 21.1 | 3.87 | 0.42 | 1.94 | 34.9 | -4.13 | -4.33 | 13.8 | 40.4 | 10.5 | 25.8 | -8.6 | 16.3 | -16.8 | inhibition at 10 µM (SW-620): -5.07%; inhibition at 10 µM (786-0): -6.68% |
